Common to all, as to assay type: cell-based, human
Test [1] relates to CD4+ T cells. Briefly: IFN-I/III quantification (LEGENDplex) in CD4+ T cells, baseline or after STING stimulation. Conditions: for IFN-I/III: over-expression of cGAS or NLS-cGAS in CD4+ T cells, data not shown. On the procedure:
(§1) Plasmapheresis blood pockets were obtained from healthy adult volunteers after informed consent from the EFS (Establishment of French blood collection). Peripheral blood mononuclear cells (PBMCs) were isolated using Ficoll-Paque Plus (GE-17144003) and left overnight at 4° C. in RPMI (Thermo fischer #61870-010) with 10% heat-decomplemented fetal bovine serum (FBS, Eurobio #CVFSVFO0-01). CD14+ cells were enriched by positive selection (Miltenyi #130-050-201), the CD14 negative fraction was subsequently used to isolate total CD4+ T cells by negative selection (Stem Cell #17952). CD14+ cells were cultured in RPMI containing 10% FBS, 5% Penicillin-Streptomycin (PS, Thermo Fisher #10378-016), 50 μg/ml Gentamicin (Thermo Fisher #15750-045) and 10 mM HEPES (Thermo Fisher #15630-056). CD14+ cells were differentiated ex vivo into MDDC by supplementing the culture media with 50 ng/ml IL-4 (Miltenyi #130-093-922) and 10 ng/ml GM-CSF (Miltenyi #130-093-867). MDDC were used for experiments 3 or 4 days following the start of the culture. CD14+ cells were differentiated ex vivo into macrophages by adding 50 ng/ml MCSF (Miltenyi #130-096-492) to the culture media containing RPMI with 1% PS, 5% FBS and 5% human serum (Sigma #H4522). MDM were used 7 days following culture. Freshly isolated CD4+ T cells were cultured in X-VIVO 15 (Lonza #BE02-060F) and activated using anti-CD3 and anti-CD28 Dynabeads (fisher scientific #10548353) at the ratio of 1:5 (bead:cell). 100 U/ml human IL-2 (Immunotools #11340027) was added to cultures 2 days following TCR stimulation and media with IL-2 was replenished every 48 hours. To assess proliferation, freshly isolated CD4+ T cells were stained with cell proliferation dye (thermo fischer #65-0840-85) prior to TCR stimulation.
(§2) CD14+ cells were plated at 1 million cells/ml and transduced with equal volumes of freshly harvested SIV-VLPs and pTRIP-SFFV vectors in the presence of 8 μg/ml protamine (Sigma #P4020). CD4+ T cells were transduced with lentivectors 24 hours post-TCR stimulation in 100 μl of cells (0.2 million cells) and 100 μl of freshly harvested lentivirus in the presence of 8 μg/ml protamine. T cells were spinoculated at 1200 g for 2 hours at 25° C. 0.5 million THP-1 cells in 500 μl media (RPMI 10% FBS 1% PS) were transduced with 500 μl freshly harvested lentivirus in the presence of 8 μg/ml protamine. 1 μg/ml Puromycin (Invivogen #ant-pr-1) was added 2 days post-transduction when cells were transduced with pLKO.1-puro plasmid.
For stimulation of STING by extracellular ligands, 2.5 μg of ADUS100 (invivogen #tlrl-nacda2r-01) or 2′3′-cGAMP (cGAMP, invivogen #tlrl-nacga23-02) was added to 100,000 cells in 100 μl media either on freshly isolated primary cells or 3-4 days post differentiation for MDDC and 3 days post-TCR stimulation for CD4+ T cells. Cells and supernatant were harvested 18-24 hours post stimulation. For delivery of STING ligands after permeabilization, T cells were used 3 or 4 days post TCR stimulation and MDDC were used 3-4 days following differentiation. 150,000 cells were plated in round bottom 96-well plate. Media was removed by centrifugation and 20 μl 2× permeabilization buffer (100 mM HEPES, 200 mM KCl, 6 mM MgCl2, 0.2 mM DTT, 170 mM Sucrose, 2 mM ATP, 2 mM GTP, 0.4% bovine serum albumin (BSA), 20 μg/ml digitonin) and 20 μl cGAMP (12 μg/ml) was added to cells. 18 to 20 hours following stimulation supernatants and cells were harvested. Cells were stained with a fixable viability dye (Invitrogen #65-0865-14) and acquired on a FACSVerse (BD). […]
Where indicated, cells were treated with 5-Azacytidine (5AZA, Sigma #A2385) 48 hours prior to cGAMP stimulation. Fresh 5AZA was added daily to cells, and media was replenished with 5AZA following cGAMP stimulation. 100 nM Trichostatin A (TSA) (sigma #T1952) was added to cells following cGAMP stimulation and left overnight. […]

For test [2], the system named is STING, TBK1, IRF3, RELA, IRF7. Nature of the test: Western blot of key signaling proteins involved in STING signaling. As to conditions: CD4+ T cells treated with TSA or 5AZA, FIG. 3E. On the procedure:
0.5 million cells were lysed for 30 minutes on ice in 50 μl RIPA buffer (50 mM Tris HCl, 150 mM NaCl, 0.1% SDS, 0.5% DOC, 1% NP-40) with Protease inhibitor (Roche #1187358001). To evaluate, phospho-proteins 50 mM NaF and 1 mM sodium orthovanadate were added to the lysis buffer. Protein lysates were cleared by centrifugation at 12,000 g for 10 to 12 minutes at 4° C. 10 μl of 6× Laemmli buffer (fisher scientific #J61337) was added to 50 μl protein lysates and samples were boiled at 95° C. for 15 minutes. Protein samples were resolved on 4%-20% Biorad precast SDS-PAGE gels (#5671125) and transferred onto PVDF membranes (BioRad #1704157). Membranes were blocked in 5% non-fat dry milk in PBS 0.1% tween or in TBS 5% BSA 0.1% Tween to detect phosphorylated proteins. Primary antibodies were used at 1:1000:phospho-STING (clone-D7C3S), STING (clone-D2P2F), serine 172 phospho-TBK1 (clone-D52C2), TBK1 (clone-D11B4), serine 396 phospho IRF3 (clone-D6O1M), IRF3 (clone-D83B9), RELA (clone-C22B4), IRF7 (clone-12G9A36), cGAS (clone-D1 D3G), Actin (clone-C4), Sendai viral proteins (Biozol #MBL-PD029). Secondary anti-rabbit or anti-mouse antibody were used at 1:10,000 (santa cruz #sc-2357, #sc-516102). ECL signal (Biorad #1705061 and #1705062) was recorded on a ChemiDoc Touch Biorad Imager. Data was analyzed and quantified with Image Lab software (Biorad). In figures, dotted lines indicate reordering of lanes from a single original membrane for visualization purpose.
(In general: Immunoblotting shows a protein as a band on a membrane.)

The test system of test [3] is MDDC. Nature of the test: IFN-I/III quantification (LEGENDplex) in MDDC after STING stimulation. On the procedure:
as §1, §2
For stimulation of STING by extracellular ligands, 2.5 μg of ADUS100 (invivogen #tlrl-nacda2r-01) or 2′3′-cGAMP (cGAMP, invivogen #tlrl-nacga23-02) was added to 100,000 cells in 100 μl media either on freshly isolated primary cells or 3-4 days post differentiation for MDDC and 3 days post-TCR stimulation for CD4+ T cells. Cells and supernatant were harvested 18-24 hours post stimulation. For delivery of STING ligands after permeabilization, T cells were used 3 or 4 days post TCR stimulation and MDDC were used 3-4 days following differentiation. 150,000 cells were plated in round bottom 96-well plate. Media was removed by centrifugation and 20 μl 2× permeabilization buffer (100 mM HEPES, 200 mM KCl, 6 mM MgCl2, 0.2 mM DTT, 170 mM Sucrose, 2 mM ATP, 2 mM GTP, 0.4% bovine serum albumin (BSA), 20 μg/ml digitonin) and 20 μl cGAMP (12 μg/ml) was added to cells. 18 to 20 hours following stimulation supernatants and cells were harvested. Cells were stained with a fixable viability dye (Invitrogen #65-0865-14) and acquired on a FACSVerse (BD).
For experiments with conditioned media, CD4+ T cell- and MDDC-conditioned media refer to […] filtered conditioned media from cultures of activated CD4+ T cell and MDDC, respectively. CD4+ T cells were pretreated with 100 μl of MDDC-conditioned media or of fresh MDDC culture media, 24 hours prior to cGAMP stimulation. […]

The mark [4] stands for this setting: TCR-activated CD4+ T cells, ADU-S100 2.5 μg, FIG. 1D.

With `Nc1ncn([C@@H]2O[C@H](CO)[C@@H](O)[C@H]2O)c(=O)n1` [5AZA, 5-Azacytidine, reference compound], the “IFNλ1 response to cGAMP under epigenetic inhibitor” value in test [1] (CD4+ T cells, TSA 100 nM or 5AZA 2 μM, FIG. 3D) is “enhanced the IFNλ1 response to cGAMP”. Further, the “cGAMP-mediated STING signaling” value in test [2] is “did not occur through detectable increase”.

On to `Nc1ncnc2c1ncn2[C@@H]1O[C@@H]2COP(=O)([S-])O[C@@H]3[C@H](O)[C@@H](COP([O-])(=S)O[C@H]2[C@H]1O)O[C@H]3n1cnc2c(N)ncnc21.[Na+].[Na+]` (stereo partly shown) [ADU-S100, reference compound], for which, in test [1] (setting [4]), the IFN-I induction entry is listed as “no detectable IFN-I” and the IFN-III induction result is listed as “induced IFN-III”. The “IFN response to STING ligands” value in test [1] (resting blood CD4+ T cells, soluble ligand 1 μg or 2.5 μg, FIG. 1B) was “undetectable”. In addition, the “IFNλ1 produced by donor-matched MDDC, more than TCR-activated CD4+ T cells” value in test [3] (ADU-S100 2.5 μg, FIG. 1D) amounted to 10 fold. For the same molecule, the IFNβ production entry in test [3] (donor-matched MDDC, ADU-S100 2.5 μg, FIG. 1D) is “high levels”.

On to “IFNγ: recombinant type II interferon, 10 ng/ml”, for which, in test [3] (MDDC treated with recombinant IFNγ 10 ng/ml 24 hours before cGAMP, FIG. 1H), the “IFN-I/III response to cGAMP” value is given as “sufficient to enhance”.

B1: cGAS: pTRIP-SFFV-EGFP-FLAG-cGAS over-expression (protein, UniProt Q8N884 1-522, looked up)
Cyclic GMP-AMP synthase: MQPWHGKAMQRASEAGATAPKASARNARGAPMDPTESPAAPEAALPKAGKFGPARKSGSRQKKSAPDTQERPPVRATGARAKKAPQRAQDTQPSDATSAPGAEGLEPPAAREPALSRAGSCRQRGARCSTKPRPPPGPWDVPSPGLPVSAPILVRRDAAPGASKLRAVLEKLKLSRDDISTAAGMVKGVVDHLLLRLKCDSAFRGVGLLNTGSYYEHVKISAPNEFDVMFKLEVPRIQLEEYSNTRAYYFVKFKRNPKENPLSQFLEGEILSASKMLSKFRKIIKEEINDIKDTDVIMKRKRGGSPAVTLLISEKISVDITLALESKSSWPASTQEGLRIQNWLSAKVRKQLRLKPFYLVPKHAKEGNGFQEETWRLSFSHIEKEILNNHGKSKTCCENKEEKCCRKDCLKLMKYLLEQLKERFKDKKHLDKFSSYHVKTAFFHVCTQNPQDSQWDRKDLGLCFDNCVTYFLQCLRTEKLENYFIPEFNLFSSNLIDKRSKEFLTKQIEYERNNEFPVFDEF
modifications: EGFP, FLAG tag
notes: pTRIP-SFFV-EGFP-FLAG-cGAS over-expression
With B1, in test [1], the IFN-I/III entry is reported as “remained undetectable”.

B2: NLS-cGAS: pTRIP-SFFV-EGFP-NLS-FLAG-cGAS, nuclear localization signal cGAS over-expression (protein, UniProt Q8N884 1-522, looked up)
Cyclic GMP-AMP synthase: MQPWHGKAMQRASEAGATAPKASARNARGAPMDPTESPAAPEAALPKAGKFGPARKSGSRQKKSAPDTQERPPVRATGARAKKAPQRAQDTQPSDATSAPGAEGLEPPAAREPALSRAGSCRQRGARCSTKPRPPPGPWDVPSPGLPVSAPILVRRDAAPGASKLRAVLEKLKLSRDDISTAAGMVKGVVDHLLLRLKCDSAFRGVGLLNTGSYYEHVKISAPNEFDVMFKLEVPRIQLEEYSNTRAYYFVKFKRNPKENPLSQFLEGEILSASKMLSKFRKIIKEEINDIKDTDVIMKRKRGGSPAVTLLISEKISVDITLALESKSSWPASTQEGLRIQNWLSAKVRKQLRLKPFYLVPKHAKEGNGFQEETWRLSFSHIEKEILNNHGKSKTCCENKEEKCCRKDCLKLMKYLLEQLKERFKDKKHLDKFSSYHVKTAFFHVCTQNPQDSQWDRKDLGLCFDNCVTYFLQCLRTEKLENYFIPEFNLFSSNLIDKRSKEFLTKQIEYERNNEFPVFDEF
modifications: EGFP, NLS, FLAG tag
notes: pTRIP-SFFV-EGFP-NLS-FLAG-cGAS, nuclear localization signal cGAS over-expression
As to B2, the IFN-I/III result in test [1] is reported as “remained undetectable”.

B3: RELA K310R: RELA with lysine 310 substituted for arginine, expressed from lentivector (protein)
chain: MDELFPLIFPAEPAQASGPYVEIIEQPKQRGMRFRYKCEGRSAGSIPGERSTDTTKTHPTIKINGYTGPGTVRISLVTKDPPHRPHPHELVGKDCRDGFYEAELCPDRCIHSFQNLGIQCVRRRDLEQAISQRIQTNNNPFQVPIEEQRGDYDLNAVRLCFQVTVRDPSGRPLRLPPVLSHPIFDNRAPNTAELKICRVNRNSGSCLGGDEIFLLCDKVQKEDIEVYFTGPGWEARGSFSQADVHRQVAIVFRTPPYADPSLQAPVRVSMQLRRPSDRELSEPMEFQYLPDTDDRHRIEEKRKRTYETFRSIMRRSPFSGPTDPRPPPRRIAVPSRSSASVPKPAPQPYPFTSSLSTINYDEFPTMVFPSGQISQASALAPAPPQVLPQAPAPAPAPAMVSALAQAPAPVPVLAPGPPQAVAPPAPKPTQAGEGTLSEALLQLQFDDEDLGALLGNSTDPAVFTDLASVDNSEFQQLLNQGIPVAPHTTEPMLMEYPEAITRLVTGAQRPPDPAPAPLGAPGLPNGLLSGDEDFSSIADMDFSALLSQISS
For the molecule B3, in test [1] (lentivector overexpression in CD4+ T cells, FIG. 2B, 2D, 2F), the “IFNλ1 after cGAMP stimulation” value is on record as “augmented in the presence of cGAMP”. Further, the “IFNα2 in response to cGAMP” value in test [1] (lentivector overexpression in CD4+ T cells, FIG. 2D, 2F) is recorded as “detected”. Besides, the “baseline IFNλ1 expression” value in test [1] (lentivector overexpression in CD4+ T cells, no cGAMP, FIG. 2D, 2F) was “increased baseline IFNλ1 similar to RELA K5R”.

For the origin of these results see US20250213614A1, “Modified RELA Protein for Inducing Interferon Expression and Engineered Immune Cells with Improved Interferon Expression” (Institut Curie, priority 2022, published 2025).
